Measurements: patent US7166738B2, “Non-nucleoside reverse transcriptase inhibitors” (Roche Palo Alto LLC, priority 2004, dated 2007)
Like-named read-outs stand apart in the source and are kept apart here.

Tests used:
[1] = system: HIV; assay: Anti-viral Assay (method of Pauwels et al.); type: cell-based; conditions: Human immunodeficiency virus 1
Protocol: Anti-viral assays were carried out by the method described by R. E. Pauwels et al. J. Virol. Methods 1988 20(4):309–322.

[2] = molecular target: HIV-1 RT (Human immunodeficiency virus type 1 group M subtype B, UniProt P03366); assay: HIV Reverse Transcriptase Assay: Inhibitor IC50 Determination; type: biochemical
Protocol: HIV Reverse Transcriptase Assay: Inhibitor IC50 Determination
HIV-1 RT assay was carried out in 96-well Millipore MultiScreen MADVNOB50 plates using purified recombinant enzyme and a poly(rA)/oligo(dT)16 template-primer in a total volume of 50 μL. The assay constituents were 50 mM Tris/HCl, 50 mM NaCl, 1 mM EDTA, 6 mM MgCl2, 5 μM dTTP, 0.15 μCi [^3H] dTTP, 5 μg/ml poly (rA) pre annealed to 2.5 μg/ml oligo (dT)16 and a range of inhibitor concentrations in a final concentration of 10% DMSO. Reactions were initiated by adding 4 nM HIV-1 RT and after incubation at 37° C. for 30 min, they were stopped by the addition of 50 μl ice cold 20% TCA and allowed to precipitate at 4° C. for 30 min. The precipitates were collected by applying vacuum to the plate and sequentially washing with 3×200 μl of 10% TCA and 2×200 μl 70% ethanol. Finally, the plates were dried and radioactivity counted in a Packard TopCounter after the addition of 25 μl scintillation fluid per well. IC50's were calculated by plotting % inhibition versus log10 inhibitor concentrations.

[3] = purified recombinant enzyme, poly(rA)/oligo(dT)16 template-primer, 37° C. 30 min, read-out: RT inhibition

Compound | EC50 [1] | melting point | IC50 [2] | IC50 [2, 3]
N#Cc1cc(Cl)cc(Oc2c(Br)ccc(CC(=O)Nc3ccc(S(N)(=O)=O)cc3Cl)c2F)c1 [Compound I-109, 2-[4-Bromo-3-(3-chloro-5-cyano-phenoxy)-2-fluoro-phenyl]-N-(2-chloro-4-sulfamoyl-phenyl)-acetamide] | 1.3 nM | 165 to 166.6 °C | 13.6 nM | 
CCc1ccc(CC(=O)Nc2ccc(S(N)(=O)=O)cc2Cl)cc1Oc1cc(C#N)cc(C(F)F)c1 [Compound I-140, N-(2-Chloro-4-sulfamoyl-phenyl)-2-[3-(3-cyano-5-difluoromethyl-phenoxy)-4-ethyl-phenyl]-acetamide] | 0.4 nM | 191.8 to 192.5 °C |  | 21 nM
N#Cc1cc(Oc2c(Br)ccc(CC(=O)Nc3ccc(S(N)(=O)=O)cc3Cl)c2F)cc(C(F)F)c1 [Compound I-165, 2-[4-Bromo-3-(3-cyano-5-difluoromethyl-phenoxy)-2-fluoro-phenyl]-N-(2-chloro-4-sulfamoyl-phenyl)-acetamide] | 0.4 nM | 205.4 to 207.7 °C |  | 21 nM
Cc1cc(S(N)(=O)=O)ccc1NC(=O)Cc1ccc(Br)c(Oc2cc(C#N)cc(C(F)F)c2)c1F [Compound I-169, 2-[4-Bromo-3-(3-cyano-5-difluoromethyl-phenoxy)-2-fluoro-phenyl]-N-(2-methyl-4-sulfamoyl-phenyl)-acetamide] | 0.4 nM | 223.9 to 225 °C |  | 27 nM
CCc1ccc(CC(=O)Nc2ccc(S(N)(=O)=O)cc2Cl)c(F)c1Oc1cc(C#N)cc(C(F)F)c1 [Compound I-179, N-(2-Chloro-4-sulfamoyl-phenyl)-2-[3-(3-cyano-5-difluoromethyl-phenoxy)-4-ethyl-2-fluoro-phenyl]-acetamide] | 0.4 nM | 239.6 to 240.7 °C |  | 7.4 nM
